This is an account of results in patent US10640402B2, “Use of oxidizing and non-oxidizing biocides for control of bacteria tolerant to stabilized-oxidant treatment” (Ecolab USA Inc., priority 2012, dated 2020).

Data set [1] concerns Cl2-urea tolerant bacteria. Description: Laboratory screening using process water treated with urea-stabilized chlorine (Table 5). The note with it: for control of Cl2-urea tolerant bacteria (in words): typical use rates, Table 5 screening. The format is cell-based.
Data set [2] relates to Cl2-urea tolerant bacteria. Description: Biocide screening against Cl2-urea tolerant bacteria (Table 4). The format is cell-based.
Data set [3] has as its system urease-producing microorganisms. Description: Antimicrobial screening of biocides for control of urease-producing microorganisms. The format is cell-based.
The test system of data set [4] is microbial population tolerant to urea-stabilized chlorine. Description: Repeat laboratory screening of process water after 10 months of urea-stabilized chlorine treatment. The data set is classed as cell-based. As to conditions: 5 ppm Cl2. As for the experimental part:
(§1) The process water stream of a paper mill was treated using a urea-stabilized chlorine program.
(§2) Process water samples were challenged with untreated process water (1% v/v) after the 4-hours samples were plated. […] In Table 1, preservation from urea-stabilized chlorine was observed prior to the application of this program to the mill water system and development of the tolerant population.

For another data set, the system named is urease. Description: Chlorine residual (TRO) with and without urease enzyme. The data set is classed as physicochemical. The note with it: control without urease.
For data set [5], the system named is process water microbial population (paper mill). Description: Initial laboratory screening of paper mill process water treated with NaOCl, before the urea-stabilized chlorine program. The format is cell-based. The note with it: 5 ppm Cl2. As for the experimental part: as §1, §2
Where [6] appears, read: 24-hour, challenged with untreated process water (1% v/v) after 4-hour plating.

Take `N#CC(Br)(Br)C(N)=O` [Dibromonitrilopropionamide, dibromonitrilopropionamide]: the results for the “CFU/mL, 1-hour” value in data set [1] (25 ppm product) and in data set [1] (100 ppm product) were 1.4 × 10^5 CFU/mL and 6.0 × 10^2 CFU/mL, respectively. In addition, the “CFU/mL, 4-hour” value was 7.0 × 10^4 CFU/mL in data set [1] (25 ppm product) and 2.0 × 10^2 CFU/mL in data set [1] (100 ppm product). Besides, the “CFU/mL, 24-hour” value in data set [1] (25 ppm product) is reported as 3.0 × 10^4 CFU/mL; in data set [1] (100 ppm product), 3.0 × 10^2 CFU/mL; in data set [2] (25 ppm product), 4.2 × 10^3 CFU/mL; in data set [2] (100 ppm product), under 100 CFU/mL. For the same molecule, the “control of Cl2-urea tolerant bacteria (in words)” value in data set [1] is recorded as “particularly effective”. The “control of urease-producing microorganisms (in words)” value in data set [3] is recorded as “effective control”.
Regarding `[Na+].[O-]Cl` [NaOCl, sodium hypochlorite], the “CFU/mL, Repeat Screening, 1-hour” value in data set [4] (1-hour) was 2.8 × 10^6 CFU/mL. In addition, the “CFU/mL, Repeat Screening, 4-hour” value in data set [4] (4-hour) is listed as 6.0 × 10^6 CFU/mL. The “CFU/mL, Repeat Screening, 24-hour” value in data set [4] (setting [6]) was 3.6 × 10^7 CFU/mL. In the data set with urease (1-hour), the “TRO (as ppm Cl2), 1-hour” value is on record as 4.6 ppm Cl2. In addition, in the data set on urease (4-hour), the “TRO (as ppm Cl2), 4-hour” value amounted to 4.5 ppm Cl2. In the data set with urease (24-hour), the “TRO (as ppm Cl2), 24-hour” value is 4.1 ppm Cl2. Also, the “CFU/mL, Initial Screening, 1-hour” value in data set [5] (1-hour) was 3.4 × 10^5 CFU/mL. Moreover, in data set [5] (4-hour), the “CFU/mL, Initial Screening, 4-hour” value is 3.6 × 10^6 CFU/mL. In addition, in data set [5] (setting [6]), the “CFU/mL, Initial Screening, 24-hour” value was 1.9 × 10^7 CFU/mL. Further, the “CFU/mL, 1-hour” value in data set [1] (2.5 ppm as Cl2) is given as 1.9 × 10^5 CFU/mL; in data set [1] (10.0 ppm as Cl2), 2.0 × 10^2 CFU/mL. In addition, the “CFU/mL, 4-hour” value is 2.0 × 10^6 CFU/mL in data set [1] (2.5 ppm as Cl2) and 2.0 × 10^2 CFU/mL in data set [1] (10.0 ppm as Cl2). The “CFU/mL, 24-hour” value is recorded as 1.0 × 10^7 CFU/mL in data set [1] (2.5 ppm as Cl2), 5.0 × 10^2 CFU/mL in data set [1] (10.0 ppm as Cl2), 5.1 × 10^5 CFU/mL in data set [2] (2.5 ppm as Cl2) and under 100 CFU/mL in data set [2] (10.0 ppm as Cl2). Moreover, in data set [1], the “control of Cl2-urea tolerant bacteria (in words)” value is “also effective, but was required at higher concentrations”. Also, the “control of urease-producing microorganisms (in words)” value in data set [3] is reported as “also effective”.
On to `O=[N+]([O-])C(Br)(CO)CO` [Bronopol], for which, in data set [1], the “control of Cl2-urea tolerant bacteria (in words)” value is listed as “not effective”. Moreover, the “CFU/mL, 24-hour” value is given as 1.0 × 10^5 CFU/mL in data set [2] (25 ppm product) and 1.3 × 10^4 CFU/mL in data set [2] (100 ppm product).
With `O=CCCCC=O` [Glutaraldehyde, glutaraldehyde], the “CFU/mL, 1-hour” value in data set [1] (25 ppm product) is on record as 1.0 × 10^6 CFU/mL; in data set [1] (100 ppm product), 1.0 × 10^2 CFU/mL. Further, the “CFU/mL, 4-hour” value is on record as 8.5 × 10^3 CFU/mL in data set [1] (25 ppm product) and 1.0 × 10^2 CFU/mL in data set [1] (100 ppm product). In addition, the “CFU/mL, 24-hour” value in data set [1] (25 ppm product) was 1.0 × 10^2 CFU/mL; in data set [1] (100 ppm product) it was 2 × 10^2 CFU/mL; in data set [2] (25 ppm product), 100 CFU/mL; in data set [2] (100 ppm product), under 100 CFU/mL. For the same molecule, the “control of Cl2-urea tolerant bacteria (in words)” value in data set [1] is given as “particularly effective”. Also, the “control of urease-producing microorganisms (in words)” value in data set [3] is listed as “effective control”.
